Where a SMILES comes first, the peptide text is derived from it.
Assays:
[1] = target: T1, immobilized peptide fragment corresponding to the region 1-16 of the amyloid-β peptide (Homo sapiens, UniProt P05067); assay: SPR binding (BIACORE T100), Example 3, in the absence of zinc; settings: for Kd: BIACORE T100, no zinc, at least 99% L isomers, read-out: dissociation constant Kd (Example 3)
T1 construct: N-terminal acetyl cap (Ac); C-terminal amide cap (NH2)
Excerpt: The binding tests described in Example 1 were reproduced, with the same materials, reactives and procedures except for the following significant differences: • the BIACORE apparatus applied was the BIACORE T100 apparatus. This BIACORE T100 apparatus produces more accurate results than the BIACORE 3000 because it includes a degasification system upon injecting the analyte on the sensor and because the method for detecting immobilized ligand/analyte intermolecular complexes on the CM5 chip is more accurate. • the tetrapeptides according to the invention used were purified to at least 99% in L isomers according to HPLC data, the D isomers were prevented from forming and/or removed during the synthesis. In Example 1, the tetrapeptides only included 98% of L isomers. • the concentrations of the tetrapeptides according to the invention applied were 50; 100; 200; 500; 1,000; 1,500 and 2,000 μM. • these experiments were conducted in the absence of zinc. • the surface of the CM5 chips provided a surface which gave a variation of response units (RU) of about 1,023 arbitrary units, with a control liquid sample.
the dissociation constant Kd being given by the formula Kd=koff/kon.

Aβ peptide (1-40) = target: T2, Aβ peptide (1-40) (Homo sapiens, UniProt P05067); assay: Aβ aggregation on SYNTHALOID SCREENING PLATE kit (fluorescence); format: biochemical; settings: for IC50: 100 nM marked Aβ (1-40), 3 hours at room temperature, buffer with physiological Zn(II), read-out: inhibitory concentration IC50 of aggregation of the Aβ peptide; for effect of prolonged incubation on amyloid aggregates: incubation for at least 1 hour, 20, 40, 80, 100 and 150 μM
T2 construct: The complete β peptide 1-40 was used, marked by a fluorescent marker; purchased QUALITY CONTROLLED BIOCHEMICALS Inc. USA
Description: They were left to incubate for 3 hours at room temperature in the wells.
In certain wells, tetrapeptides AC-HAEE-NH2 and Ac-RADD-NH2 according to the invention, were introduced at different concentrations depending on the wells (0, 5, 10, 20, 40, 80, 100 and 150 μM), for checking the effect of tetrapeptides according to the invention on the aggregation phenomenon of Aβ peptides.
To do this, at the end of the incubation, the unbound proteins in the wells were removed with three washings, by using the buffer solution above. The amount of bound proteins in the form of aggregates, bound to the well, was measured by measuring the fluorescence intensity.

[2] = target: T3, immobilized peptide fragment corresponding to the 1-16 region of the amyloid-β peptide (Homo sapiens, UniProt P05067); assay: SPR binding (BIACORE 3000), Examples 1 and 2
T3 construct: N-terminal acetyl cap (Ac); C-terminal amide cap (NH2)
T3 sequence (P05067 with tags, fused parts or gaps limits assumed): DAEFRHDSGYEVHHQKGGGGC
Description: With this analysis, it is possible to calculate the dissociation constant Kd of the interaction of the peptide with the immobilized ligand, it being understood that the value of Kd is all the more smaller since the interaction with the ligand and therefore the stability of the formed interaction complex are high.
More specifically, in an SPR spectroscopy system, for example applying a biosensor from BIACORE, after immobilization of the ligand at the surface of a sensor of the chip type, in this case here the amyloid-β fragment, the analyte reagent is injected on said surface at a constant flow rate through systems of microfluidic channels. Polarized light emitted by a light source is reflected on the gold-covered surface of the chip, and then detected by a diode reader. According to the binding of the ligand and of the analyte molecule, the intensity of the reflected light is different. The variation in the response of the spectrometer (RU=Response unit) allows calculation of the dissociation constant of the interaction.
The chips of the biosensor came from GE Healthcare (USA). The SPR spectroscopy experiments were conducted with the BIACORE 3000 apparatus. The reagents for immobilizing the amyloid-β peptide fragment (EDC, NHS, PDEA and cysteine) were bought from GE Healthcare (USA). The buffer used for immobilizing the peptide ligand by formation of thiol bonds was 10 mM sodium acetate at pH 4.5. The regeneration buffer was an HBS buffer containing a medium with 10 mM HEPES and 3 mM EDTA, 0.005% of surfactant P20 and 150 mM NaCl at pH 7.4. […] All the buffers were filtered before use.
This peptide with 21 amino acids contains the 16 amino acids of the N-terminal end of the binding domain of the amyloid-β, i.e. [sequence] (SEQ. ID. NO.25), followed by 4 glycine amino acids and a cysteine C-Terminal end. Cysteine is necessary for immobilizing the ligand on the surface of the chip through a thiol bond according to the procedure of the supplier. 4 glycine amino acids therefore form a binding tetrapeptide (“linker”) between the chip and the ligand. Further, the thereby immobilized ligand has enough flexibility relatively to the surface, so as to validly mimic the interaction conditions between the tetrapeptide reagent and the ligand. This ligand was bound onto a CM5 chip of the biosensor, by following the standard procedure through a thiol bond under conditions described in the handbook of the sensor provided by the supplier GE Healthcare (USA).
The flow rate applied in all the steps was 5 μl/min. The carboxymethyl dextran matrix was activated by injecting a 1:1 mixture of 1-ethyl-3(3-dimethylaminopropyl)-carbodiimide (EDC) and of N-hydroxysuccinimide (NHS), i.e. 30 μl of EDC at 400 mM and NHS at 100 mM, followed by an injection of 80 mM PDEA (2-(2-pyridinyldithio)-ethane-amine) in solution in 0.1 M sodium borate at a pH of 8.5. The peptide ligand in solution in a sodium acetate buffer in an amount of 0.05 mg/ml was then injected. […] The control liquid was reacted with the surface of the chip according to the same procedure.
The surface of the chip was exposed for 330 seconds to the reagent buffer solution in order to track its binding. The surface of the chip was then regenerated by injecting a regeneration buffer (20 μL). The data of the control lane were subtracted from raw data of the lane corresponding to the immobilized reagent peptides.

T2 sequence (P05067 672-711 limits assumed): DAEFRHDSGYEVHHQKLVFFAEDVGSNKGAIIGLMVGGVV

| Structure (SMILES) | koff [1] | kon [1] | Kd [1] | IC50 (Aβ peptide (1-40)) | effect of prolonged incubation on amyloid aggregates (Aβ peptide (1-40)) | Kd ([2]; BIACORE 3000, peptides with Ra=Ac, Rb=NH2, 98% L isomers, read-out: dissociation constant Kd) | interactions of the ligand with the reagent at high concentrations of Zn(II) ions ([2]; Zn(II) 10 mM) | dissociation constant in the presence of physiological concentrations of Zn(II) ions ([2]; Zn(II) 100-400 μM) | interactions with the 1-16 domain of Aβ at higher concentrations of Zn(II) ions ([2]; Zn(II) of the order of 1 millimolar (mM)) | binding to the 1-16 domain of the amyloid-β in the presence or absence of Zn(II) ions ([2]; physiological Zn(II), micromolar levels (less than 500 μM)) |
| --- | --- | --- | --- | --- | --- | --- | --- | --- | --- | --- |
| CC(=O)N[C@@H](Cc1c[nH]cn1)C(=O)N[C@@H](C)C(=O)N[C@@H](CC(=O)O)C(=O)N[C@@H](CC(=O)O)C(N)=O [SEQ. ID. NO. 1, HADD] (Ac-HADD-NH2) | 0.0104 ± 2e-05 s⁻¹ | 3.2 ± 0.08 M⁻¹ s⁻¹ | – | – | – | – | – | – | – | – |
| CC(=O)N[C@@H](CC(=O)O)C(=O)N[C@@H](CC(=O)O)C(=O)N[C@@H](C)C(=O)N[C@@H](CCCCN)C(N)=O [SEQ. ID. NO. 4, DDAK] (Ac-DDAK-NH2) | 0.0062 ± 0.0001 s⁻¹ | 4.57 ± 0.09 M⁻¹ s⁻¹ | 1000 to 10000 µM | – | – | – | – | – | – | – |
| CC(=O)N[C@@H](CCCNC(=N)N)C(=O)N[C@@H](C)C(=O)N[C@@H](CC(=O)O)C(=O)N[C@@H](CC(=O)O)C(N)=O [SEQ. ID. NO. 5, Ac-RADD-NH2] (Ac-RADD-NH2) | 0.00024 ± 4e-05 s⁻¹ | 18.5 M⁻¹ s⁻¹ | – | 20 µM | irreversible disaggregation | – | – | – | – | – |
| CC(=O)N[C@@H](CCCCN)C(=O)N[C@@H](C)C(=O)N[C@@H](CCC(=O)O)C(=O)N[C@@H](CC(=O)O)C(N)=O [SEQ. ID. NO. 9, KAED] (Ac-KAED-NH2) | 0.019 ± 0.001 s⁻¹ | 5.7 ± 0.9 M⁻¹ s⁻¹ | 1000 to 10000 µM | – | – | – | – | – | – | – |
| CC(=O)N[C@@H](CC(=O)O)C(=O)N[C@@H](CCC(=O)O)C(=O)N[C@@H](C)C(=O)N[C@@H](CCCNC(=N)N)C(N)=O [SEQ. ID. NO. 12, DEAR] (Ac-DEAR-NH2) | 0.00709 ± 9e-05 s⁻¹ | 3.58 ± 0.08 M⁻¹ s⁻¹ | 1000 to 10000 µM | – | – | – | – | – | – | – |
| CC(=O)N[C@@H](CCCCN)C(=O)N[C@@H](C)C(=O)N[C@@H](CC(=O)O)C(=O)N[C@@H](CCC(=O)O)C(N)=O [SEQ. ID. NO. 15, KADE] (Ac-KADE-NH2) | 0.0096 ± 0.0002 s⁻¹ | 2.2 ± 0.1 M⁻¹ s⁻¹ | 1000 to 10000 µM | – | – | – | – | – | – | – |
| CC(=O)N[C@@H](Cc1c[nH]cn1)C(=O)N[C@@H](C)C(=O)N[C@@H](CCC(=O)O)C(=O)N[C@@H](CCC(=O)O)C(N)=O [SEQ. ID. NO. 19, Ac-HAEE-NH2] (Ac-HAEE-NH2) | 3.5e-05 ± 8e-06 s⁻¹ | 0.37 ± 0.05 M⁻¹ s⁻¹ | – | 20 µM | irreversible disaggregation | 0.022 µM | suppressed the interactions | practically unchanged | suppress the interactions | practically not altered |
| CC(=O)N[C@@H](CCCNC(=N)N)C(=O)N[C@@H](C)C(=O)N[C@@H](CCC(=O)O)C(=O)N[C@@H](CCC(=O)O)C(N)=O [SEQ. ID. NO. 23, RAEE] (Ac-RAEE-NH2) | 0.0112 ± 8e-05 s⁻¹ | 1.5 ± 0.1 M⁻¹ s⁻¹ | 1000 to 10000 µM | – | – | – | – | – | – | – |
